For one data set, the system named is E. coli PQ37. Nature of the data set: SOS induction (chromotest). It counts as cell-based. Particulars: E. coli PQ37, 120 min; Peptide A 3.4 μM, Piscidin 3.77 μM. The method, then: Results are expressed as 2^(−Delta Delta C (T)). […] Results are expressed as 2^(−Delta Delta C (T)).
E. coli PQ37 (Genotype: Sfi A and Lac Z fusion, lac Z) was cultured in lysogeny broth (LB) that contained 57.2 μM of ampicillin overnight (37° C.) and subcultured through 20 dilutions on another day so that OD600 equals to 0.2-0.4. PQ37 was incubated in 0.3 ml AMP (3.4 μM) or Piscidin ([…], 3.77 μM) for 2 hours and then re-suspended in the same volume of Z-buffer (Na2HPO4.7H2O 16.1 g/l, NaH2PO4.2H2O 6.24 g/L, KCl 0.75 g/L, MgSO4.7H2O 0.246 g/L and b-mercaptoethanol 0.3% (v/v)) for carrying out a β-galactosidase assay (β-ga) and alkaline phosphatase assay (ap), respectively. The bacteria were lysed with 0.1 ml of 0.1% SDS and 0.15 ml of chloroform. For the β-ga assay, the reaction was started by adding 0.6 ml of ortho-Nitrophenyl-β-galactoside (ONPG; Catalog number 34055, ThermoFisher Scientific) for color development and then stopped with the addition of 2 ml of 1 M NaCO3 solution. For ap acsay, the reaction was started by adding 0.6 ml of para-Nitrophenylphosphate (PNPP; Catalog number 34045, ThermoFisher Scientific) for color development which was then terminated by the addition of 1 ml of 2 M HCl solution and 1 ml of 2 M Tri-HCl to restore the colour. The absorbance was read at 420 nm against a blank without bacteria. The induction factor (IF) was calculated as the ratio R(x)/R(0) (R(x)=β-g/ap determined for the tested peptide; R(0)=β-g/ap determined for the LB). Furacin (antibiotic) and Piscidin were chosen as the controls. Each experiment was performed in triplicate.

The subject of another data set is E. tarda. Nature of the data set: Host resistance assay, Experiment Two: pre-injection 2 h before bacteria. It counts as in vivo, Medaka. The following applies: injected 2 h prior to E. tarda. The method, then: (§1) FIG. 11A is a plot showing the effect of Peptide A on viability of cultured mammalian cells, incubated for 48 h in the presence of Peptide A at different concentrations (μg/ml), as determined by MTT assay. Cell viability represented as peptide treated cell numbers over medium-only control. Statistically significant difference as compared to controls (*: p<0.05, **: p<0.01, n=4). FIG. 11B is a plot showing the ability of Peptide A to protect medaka from lethal challenge of E. tarda ([…]). Medaka was injected with 1 μl of Peptide A (0.68 mM), with 1 μl of E. tarda (10^7 CFU/ml) and Peptide A (0.68 mM) mixture, or with E. tarda alone (1 μl of E. tarda:10^7 CFU/ml). […] 20 fish per group. Log-rank (Mantel-Cox) test was applied for the comparison of survival curves (**: p<0.01).
The efficacy of the synthesized AMP to protect medaka against infection was characterized using host resistance assays with intraperitoneal (i.p.) injection of bacteria using a micro-injection machine (PV820 Pneumatic PicoPump). In Experiment One, 80 medaka fish were used and divided into four groups (20 fish in each group, male, 6 months): (1) Group 1 was injected with only 1 μl of PBS in each fish; (2) Group 2 was injected with only 1 μl of novel AMP (0.68 mM) in each fish; (3) Group 3 was injected with 1 μl of bacteria (at a titer of 5×10^7 CFU/ml); and (4) bacteria and novel AMP were mixed for 5 min and then 1 μl of the mixture was injected into Group 4 (Bacteria: 5×10^7 CFU/ml, AMP: 0.68 mM). In Experiment Two, 60 fish were used and divided into three groups: each fish was injected with 1 μl of PBS, ampicillin (5.7 mM) or Peptide A (1.36 mM). The fish were anesthetized in MS222 for 30 s before microinjection. After two hours, 1 μl of bacteria (5×10^7 CFU/ml) was injected into the fish. All of the fishes were kept under a static condition of 26° C.±1° C., with 14:10 hrs of a light-dark cycle. The water was replaced every two days. The fish were fed three times each day. The number of dead fish was counted on a daily basis until two weeks after the injections.

Data set [1] relates to Aeromonas hydrophila ATCC 49140. It counts as cell-based.
Experimental: (§2) MIC denotes the lowest concentration of an antimicrobial agent that can inhibit the growth of bacteria after overnight incubation.
(§3) Bacteria were grown in their respective media (Table 2 above) overnight at 37° C. or room temperature with constant shaking and then diluted to 10^6 CFU/ml in their respective medium. Stock solutions of peptides at 0.68 mM were prepared in distilled water. Bacteria and peptide were incubated (50 μl: 50 μl) to make the final peptide concentrations (0.68, 3.4, 6.8, 13.7, 34.1, 68.3, 136.5 μM) in a 96-microtitre plate and incubated for 24 h with constant shaking. […] Absorbance at 600 nm was detected every 3 h up to 24 h to obtain the growth curves. The minimal inhibition concentration (MIC) was defined as the lowest concentration of an antimicrobial agent that could inhibit the growth of bacteria after overnight incubation.
For data set [2], the system named is Escherichia coli BL21 (DE3). It counts as cell-based.
Experimental: as §2, §3
The subject of another data set is E. cloacae BAA-1143. It counts as cell-based.
For data set [3], the system named is six mammalian cell lines (HeLa, MDA-MB, MC3T3, MCF7, H1299, and AG06858). Nature of the data set: In vitro toxicity, 48 hour MTT assay. It counts as cell-based, Human; Mouse. The following applies: concentrations close to the MIC for gram-negative bacteria. On the procedure:
as §1
Mammalian cell lines (Hela, MDA MB, MC3T3, MCF7, H1299, and AG06858) were seeded into 96 well-plates one day before treatment at a density of 3×10^5 cells/ml for a 48 hour MTT assay. The peptides were directly dissolved in the medium to make a 136.5 μM stock. […] The resulting solution was measured by using a microplate reader (BMG Polarstar Optima) at a wavelength of 570 nm. The optical density (OD) values were recorded and cell viability was calculated based on the OD readings normalized to the untreated cells.
Background: Tetrazolium dyes change colour on reduction, which living cells bring about.

The subject of a further data set is CpxA. The following applies: E. tarda, 6.8 μM, 1 hr.
The test system of data set [4] is Gram positive (S. aureus) and negative (E. coli) bacteria. Nature of the data set: Toxicity screen of synthesized shortlisted SCPs against bacteria. It counts as cell-based. Particulars: synthesized peptides. An excerpt: Of the remaining SCPs, 1519 (24%) satisfy the CAMP prediction algorithm for AMPs as potential AMPs (FIG. 3). In order to increase the accuracy of prediction, the inventors further limited the shortlisted AMPs to amphipathic and cationic peptides, since they account for the majority of currently known AMPs. There are 430 peptides from the SCP database that satisfied these criteria. To assess the accuracy of the AMP prediction, the inventors synthesized 53 of the shortlisted SCPs and tested their toxicity against both Gram positive (S. aureus) and negative (E. coli) bacteria.

The subject of data set [5] is panel of Gram-positive and Gram-negative bacteria. Nature of the data set: Antibacterial activity against a panel of bacteria (summary). The format is cell-based. The following applies: including beta-lactam resistant bacteria.
Experimental: The antibacterial activity of the Peptide A against a panel of Gram-positive and Gram-negative bacteria (FIG. 5A, 5B and Table 2) was determined.
as §3
Data set [6] has as its system Escherichia coli ATCC 10536. It counts as cell-based.
Experimental: as §2, §3

Structures are written as SMILES. “Also recorded” adds a separate entry of the source. Peptide text beside a SMILES is read from it.

Experimental for CpxA: FIG. 9B is a plot showing the relative expression levels of CpxA, CpxR and RpoE in E. tarda upon treatment with Peptide A for 60 min at 6.8 μM. Results are expressed as 2^(−Delta Delta C (T)). FIG. 9C is a plot showing the CpxR gene expression in E. tarda after treatment with Peptide A (6.8 μM), Piscidin (7.5 μM), Ampicillin (143 μM) and Peptide A+Ampicillin (3.4 μM; 71.5 μM) for 1 hour. Results are expressed as 2^(−Delta Delta C (T)). […] Results expressed as log 2 fold change normalized with control group.
E. tarda or E. coli were treated with AMP or antibiotics or not treated as the control at inhibitory or subinhibitory for 1 hr. After that, the total RNA of the cells were collected by using the RNAprep pure cell/bacteria kit (TIANGEN), then reverse-transcribed into cDNA by using the One-Step FastQuant RT reagent kit with gDNase (TIANGEN). 18S ribosomal RNA (18S) was used as reference gene for qPCR normalization. Each group has 6 biological replicates. In brief, quantitative polymerase chain reaction (qPCR) assays were performed by using fluorescent dye powder SYBR Green PCR Master Mix and the ABI 7500 System. Gene-specific primers were designed with Primer-BLAST (NCBI). […] The relative expression levels (fold change) of the tested genes were calculated by using the relative expression based on the 2^(−Delta Delta C (T)) Method.
Experimental for E. cloacae BAA-1143: as §2, §3

On to `CC[C@H](C)[C@H](N)C(=O)N[C@@H](CCCNC(=N)N)C(=O)N[C@H](C(=O)N[C@H](C(=O)N[C@@H](CC(C)C)C(=O)N[C@@H](CCCNC(=N)N)C(=O)N[C@@H](C)C(=O)N[C@@H](CCC(N)=O)C(=O)NCC(=O)N[C@@H](C)C(=O)N[C@@H](CC(C)C)C(=O)N[C@@H](CCCCN)C(=O)N[C@H](C(=O)O)[C@@H](C)CC)[C@@H](C)CC)[C@@H](C)CC` [Peptide A, IRIILRAQGALKI] (H-IRIILRAQGALKI-OH; N-terminus and C-terminus assumed), for which, in the data set with E. coli PQ37, the “SOS response (induction factor)” value is “consistent induction of SOS response”. Besides, the initial survival rate with E. tarda (one day post injection, Peptide A 1.37 mM, Ampicillin 5.7 mM, 1 μl) was determined as 85%. For the same compound, in the data set on E. tarda (two weeks after infection), the “effect on E. tarda infection / surviving fish” value is “still higher than the controls”. Besides, the MICs in data set [1] was 13.7 µM; in data set [2], 5.5 µM; in the data set with E. cloacae BAA-1143, 21.8 µM; in data set [6], 3.4 µM. Besides, the “cytotoxic effect (cell viability, MTT)” value in [3] is “No obvious toxicity; also recorded: relatively nontoxic”. In addition, the “CpxA mRNA expression” value in the data set with CpxA is “remains unaffected”. In addition, the “toxicity / antimicrobial activity against bacteria” value in data set [4] is “demonstrated toxicity against both Gram positive and negative bacteria”. Further, the “effect on antibiotic resistant strains” value in data set [5] is “effective on a number of antibiotic resistant strains”.

(Values after US11065296B2, “Antimicrobial peptide, its analog and use” (City University of Hong Kong, priority 2018, dated 2021).)
